Experimental data: the OPERA property sets (Mansouri et al. 2018)

Conditions: for log10 BCF / log10 biotransformation half-life (days): fish

SMILES	boiling point [°C]	melting point [°C]	other results
Oc1cc(Cl)c(Cl)cc1Cl	247	69	log10 Koc (L/kg): 3.36; log10 vapour pressure (mmHg): -2.12; ready biodegradability: not readily biodegradable; log10 BCF: 2.73
CC(C)=C(C)C	73.3	-74.6	log10 vapour pressure (mmHg): 2.1
CC[C@H]1CCCC[C@H]1C	154		
CC(C)(C)C(=O)CC(=O)C(F)(F)C(F)(F)C(F)(F)F		38	
CCCCC(C)C(C)O (stereo not drawn)	166		
CC(=O)OCC(=O)[C@@]12OC(C)(C)O[C@@H]1C[C@H]1[C@@H]3C[C@H](F)C4=CC(=O)C=C[C@]4(C)[C@@]3(F)[C@@H](O)C[C@@]12C		309	
CC(C)C=CC(=O)O	217	35	
CCCCCCCCCCCCC(=O)OC		6.5	log10 vapour pressure (mmHg): -2.89
CC(C)(CCl)c1ccccc1	223		
CCCCC(=O)c1ccc(C)cc1	256	-2	
CCN(CC)C(=O)c1cccnc1	298	25	
Clc1cc2c(c(Cl)c1Cl)Oc1c(cc(Cl)c(Cl)c1Cl)O2		243	log10 Koa: 11; log10 vapour pressure (mmHg): -10.3; log10 BCF: 3.92; log10 biotransformation half-life (days): 1.3
CCCCSP(SCCCC)SCCCC		100	
N#CCNCC#N		70	log10 vapour pressure (mmHg): -2.47
O=c1ccc2ccc(O)c(O)c2o1		262	
c1ccc2c(c1)cc1ccc3c4ccccc4cc4ccc2c1c43		317	
CCCCC(C)C(C)(C)C (stereo not drawn)	158		
O=C(O)c1ccc(C(=O)O)cc1			log10 vapour pressure (mmHg): -5.04; ready biodegradability: readily biodegradable
CCc1nccnc1OC			log10 Henry constant (atm·m³/mol): -4.83
COC(=O)C(=O)OC	164	54.3	log10 vapour pressure (mmHg): 0.0584
CCC(CC)C(=O)OC	137		
O=C(O)c1cc(Cl)ccc1O		172	

SMILES	boiling point [°C]	melting point [°C]	other results
COCCN(C(=O)CCl)c1c(C)cccc1C	320	46	log10 vapour pressure (mmHg): -4.95
CCCCCCCCCCCCCCCCCC(=O)OC(=O)CCCCCCCCCCCCCCCCC		72	
CC(C)=CC(=O)Cl	146		
CCCCCCCCCCO	231	6.9	log10 Henry constant (atm·m³/mol): -4.49; log10 Koc (L/kg): 2.59; log10 vapour pressure (mmHg): -2.07; ready biodegradability: readily biodegradable
CCCCCCCCCCCCCCCCCCCCCCCC(=O)O		84.2	
CC1(C)CC[C@]2(C(=O)O)CC[C@]3(C)C(=CC[C@@H]4[C@@]5(C)CC[C@H](O)[C@@](C)(C=O)[C@@H]5CC[C@]43C)[C@@H]2C1		275	
CC1=CCC2C(C1)C2(C)C (stereo not drawn)	170		
CCOC(=O)C=Cc1ccc([N+](=O)[O-])cc1		139	
Nc1cccc2cccc(N)c12		66.5	ready biodegradability: not readily biodegradable; log10 BCF: 0.8; log10 biotransformation half-life (days): -0.73
CC(C)N(N=O)C(C)C	194	48	
CCOC(C)C	54.1		
CC(C)(C)CC(C)(C)Nc1ncnc(N(CCCCCCNC2CC(C)(C)NC(C)(C)C2)C2CC(C)(C)NC(C)(C)C2)n1		138	
C(CC1CCNCC1)CC1CCNCC1	329	67.1	
CCC(C)(C)C(=O)Cl	132		
O=c1cc[nH]c2ccccc12		201	
O=S(=O)(O)CS(=O)(=O)O		98	
B1Oc2ccccc2O1		12	
COc1cc(Cl)c(Cl)c(Cl)c1OC		66	
O=C(c1ccccc1)c1ccc(Cl)cc1	332	77.5	
CCCCCCC(O)CCCCC (stereo not drawn)	225	30	
CCC/C=C/C=O	146		
O=Cc1ccc(C=O)cc1	246	117	ready biodegradability: readily biodegradable

SMILES	boiling point [°C]	melting point [°C]	other results
O=C(O)CNc1ccccc1		128	
CCOC(=O)C=CCC(=O)OCC	237		
O=C(CCl)OCCOC(=O)CCl		45.5	
CC(C)OC(=O)[C@H](C)N(C(=O)c1ccccc1)c1ccc(F)c(Cl)c1		78.5	
[N-]=[N+]=Nc1ccc(Cl)cc1		20	
Oc1c(C2CCCCC2)cccc1C1CCCCC1			ready biodegradability: not readily biodegradable; log10 BCF: 3.02; log10 biotransformation half-life (days): 0.2
ClC/C=C/CCl	155	-14.2	log10 vapour pressure (mmHg): 0.574
N#CC(c1ccccc1)c1ccccc1		74.3	ready biodegradability: not readily biodegradable
Clc1ccc(Oc2ccccc2Cl)c(Cl)c1			log10 vapour pressure (mmHg): -3.73
CCCCCCCO	176	-34	log10 Henry constant (atm·m³/mol): -4.73; log10 Koc (L/kg): 1.14; log10 vapour pressure (mmHg): -0.665; ready biodegradability: readily biodegradable
Clc1cc2c(oc3c(Cl)c(Cl)ccc32)c(Cl)c1Cl			log10 biotransformation half-life (days): 0.9
CC(=O)Nc1c(C)cccc1C		183	
O=[N+]([O-])c1c(Cl)c(Cl)cc(Cl)c1Cl	304	99.5	log10 Koc (L/kg): 4.05; log10 vapour pressure (mmHg): -2.74; log10 BCF: 3.23; log10 biotransformation half-life (days): 0.49
COCc1ccco1	132		
Fc1cccc2ccccc12	215	-9	
CC[C@H]1CC[C@H]2[C@@H]3CC[C@@H]4CCCC[C@]4(C)[C@H]3CC[C@]12C		84	
OCC(Cl)Cl	146		
CCN(CC)CCN1C(=O)CN=C(c2ccccc2F)c2cc(Cl)ccc21		79.5	
COCOC	42	-105	log10 Henry constant (atm·m³/mol): -3.76; log10 vapour pressure (mmHg): 2.6
CC(C)OC(=O)C1(S(=O)(=O)c2ccc([N+](=O)[O-])cc2)CC1		123	
